{"source": "patent US20080318954A1", "about": "“Compounds” (Cyclacel Limited, priority 2004, published 2008)", "key": {"[1]": {"test_system": "CK1", "assay": "Protein kinase panel selectivity screen, CK1", "type": "biochemical", "conditions": "1 μM compound; [ATP] 20 μM", "procedure": "(§1) The names of the 29 kinases comprising the selectivity screen, as well as the ATP concentrations used in each kinase case, are given in Table 5. The kinase assays were carried out as described previously.\n(§2) Compound XIV at a concentration of 1 μM was screened in the 29-kinase panel (Dundee University) and the results are shown bellow in Table 6."}, "[2]": {"target": "T1, MSK1 (Homo sapiens, UniProt O75582)", "T1 construct": "Dundee University (panel)", "T1 sequence (O75582 whole entry, species assumed)": "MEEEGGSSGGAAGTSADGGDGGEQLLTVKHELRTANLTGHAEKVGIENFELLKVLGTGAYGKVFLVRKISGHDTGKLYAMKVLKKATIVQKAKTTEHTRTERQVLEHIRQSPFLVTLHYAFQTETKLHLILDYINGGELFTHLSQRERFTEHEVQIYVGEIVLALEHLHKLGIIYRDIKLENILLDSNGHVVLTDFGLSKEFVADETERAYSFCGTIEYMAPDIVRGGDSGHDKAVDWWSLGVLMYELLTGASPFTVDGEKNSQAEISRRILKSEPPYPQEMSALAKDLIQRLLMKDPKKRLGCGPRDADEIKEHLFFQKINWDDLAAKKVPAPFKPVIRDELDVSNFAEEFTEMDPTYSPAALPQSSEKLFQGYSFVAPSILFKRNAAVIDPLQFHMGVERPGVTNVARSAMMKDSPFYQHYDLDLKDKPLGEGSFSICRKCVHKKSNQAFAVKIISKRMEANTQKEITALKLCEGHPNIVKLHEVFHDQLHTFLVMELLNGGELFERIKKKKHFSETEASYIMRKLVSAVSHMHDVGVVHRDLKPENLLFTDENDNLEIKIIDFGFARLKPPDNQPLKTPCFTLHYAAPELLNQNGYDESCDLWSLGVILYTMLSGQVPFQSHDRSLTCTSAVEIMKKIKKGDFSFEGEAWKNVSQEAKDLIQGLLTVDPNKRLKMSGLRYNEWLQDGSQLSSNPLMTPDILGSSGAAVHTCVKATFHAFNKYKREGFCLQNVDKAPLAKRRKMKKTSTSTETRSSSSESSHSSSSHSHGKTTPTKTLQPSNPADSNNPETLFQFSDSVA", "assay": "Protein kinase panel selectivity screen, MSK1", "type": "biochemical", "conditions": "1 μM compound; [ATP] 20 μM", "procedure": "as §1, §2"}, "[3]": {"target": "T2, GSK-3β (Oryctolagus cuniculus, UniProt G1T8E2)", "T2 construct": "isolated from a strain of E. coli that carries a clone expressing GSK-3β derived from a rabbit skeletal muscle cDNA library [34]", "T2 sequence (G1T8E2 1-432)": "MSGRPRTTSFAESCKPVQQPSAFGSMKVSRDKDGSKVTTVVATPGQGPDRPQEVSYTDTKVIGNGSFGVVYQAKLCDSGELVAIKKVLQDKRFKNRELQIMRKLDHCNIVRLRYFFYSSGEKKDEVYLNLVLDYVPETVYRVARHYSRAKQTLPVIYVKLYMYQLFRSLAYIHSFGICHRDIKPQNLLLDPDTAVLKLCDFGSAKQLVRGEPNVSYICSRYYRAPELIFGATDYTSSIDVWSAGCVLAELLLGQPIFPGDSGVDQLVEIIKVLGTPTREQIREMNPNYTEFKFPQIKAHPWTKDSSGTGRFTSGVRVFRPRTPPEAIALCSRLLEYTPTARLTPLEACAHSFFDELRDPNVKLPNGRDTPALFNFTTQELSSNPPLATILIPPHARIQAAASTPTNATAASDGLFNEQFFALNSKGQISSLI", "assay": "GSK-3β kinase assay", "type": "biochemical, rabbit", "procedure": "GSK-3 was obtained from New England Biolabs (UK) Ltd., Hitchin, Herts. The recombinant enzyme was isolated from a strain of E. coli that carries a clone expressing GSK-3β derived from a rabbit skeletal muscle cDNA library. Inhibition of GSK-3 function was assessed by measurement of phosphorylation of CREB phosphopeptide KRREILSRRPpSYR in the presence of test compounds. Using a 96-well assay format, GSK3 (7.5 U) was incubated for 30 min at 30° C. in a total volume of 25 μL in 20 mM MOPS pH 7.2, 25 mM β-glycerophosphate, 5 mM EGTA, 1 mM DTT, 1 mM […], 40 μM CREB peptide, 15 mM MgCl2 and 100 μM ATP (containing 0.25 μCi [γ-^32P]-ATP) in the presence of varying concentrations of test compound. The samples were transferred to 96-well p81 filter plates (Whatman Polyfiltronics, Kent, UK), and the plates were washed 4 times with 200 μL/well of 75 mM aq orthophosphoric acid. Scintillation liquid (50 μL) was added to each well, and incorporated radioactivity for each sample was determined using a scintillation counter (TopCount, Packard Instruments, Pangbourne, Berks, UK)."}, "[4]": {"target": "T3, CHK1 (Homo sapiens, UniProt O14757)", "T3 construct": "Dundee University (screening panel)", "T3 sequence (O14757 whole entry, species assumed)": "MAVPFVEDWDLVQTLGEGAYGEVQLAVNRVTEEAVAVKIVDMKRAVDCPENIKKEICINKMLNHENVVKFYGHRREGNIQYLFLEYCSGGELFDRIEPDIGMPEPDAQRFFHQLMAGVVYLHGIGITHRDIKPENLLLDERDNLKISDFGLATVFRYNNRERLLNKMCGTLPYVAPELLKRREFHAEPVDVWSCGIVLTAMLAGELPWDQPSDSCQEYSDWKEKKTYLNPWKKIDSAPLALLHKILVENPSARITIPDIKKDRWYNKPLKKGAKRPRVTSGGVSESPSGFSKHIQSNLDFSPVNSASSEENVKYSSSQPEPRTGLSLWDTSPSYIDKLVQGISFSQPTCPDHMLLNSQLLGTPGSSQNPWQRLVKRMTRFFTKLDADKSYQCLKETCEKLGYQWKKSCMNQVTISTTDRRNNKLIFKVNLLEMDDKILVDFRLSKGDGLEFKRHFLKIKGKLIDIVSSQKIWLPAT", "assay": "Protein kinase panel selectivity screen, CHK1", "type": "biochemical", "conditions": "1 μM compound; [ATP] 20 μM", "procedure": "as §1, §2"}, "[5]": {"test_system": "glycogen synthase activity in HEK293 cells", "assay": "Glycogen synthase (GS) assay in HEK293 cells", "type": "cell-based, human", "procedure": "Cells on 10 cm dishes (Human Embryonic Kidney (HEK) 293 cells, L6 rat myocytes, or 3T3 mouse adipocytes) were treated with different concentrations of GSK3-inhibitors or DMSO vehicle for 90 min. Incubation medium was removed and cells were washed with ice-cold phosphate-buffered saline (PBS) prior to lysis on ice in 50 mM HEPES, pH 7.5, 10 mM EDTA, 100 mM NaF, 5 mM DTT, protease inhibitor cocktail (Sigma). After a freeze/thaw cycle the samples are sonicated for 10 sec and centrifuged at 15,000 g for 10 min at 4° C. Lysate supernatants were snap-frozen on liquid nitrogen and stored at −80° C. Lysates were assayed for glycogen synthase activity in buffer (50 mM Tris-HCl, pH 7.8, 20 mM EDTA, 25 mM NaF, 5 mM DTT, 1% glycogen, 0.3 mM UDP-glucose and 0.06 μCi of [^14C]-UDP-glucose in the presence of 0.1 or 10 mM glucose-6-phosphate. The reaction was carried out for 30 min at 30° C. 70 μL of the reaction mixture (total volume 90 μL) were transferred to a GFC 96-well filter plate (bottom sealed with foil), containing 140 μL 96% ethanol. The GFC plate was incubated for 1 h on ice and than washed with 66% ethanol. To each well 100 μL scintillant liquid was added and the radioactivity of the samples was measured using a scintillation counter (Topcount, HP). Data are expressed as -fold increase in glycogen synthase activity ratios over those of control samples."}}, "data": [{"smiles": "Clc1ccc(Nc2nccc(-c3nccs3)n2)cn1", "note": "[Compound XIV, (6-Chloro-pyridin-3-yl)-(4-thiazol-2-yl-pyrimidin-2-yl)-amine]", "values": [{"measurement": "% Activity CK1", "setting": "[1]", "result": "69 ± 1", "unit": "%"}, {"measurement": "activity at 1 µM", "setting": "[2]", "result": "90 ± 6", "unit": "%"}, {"measurement": "Ki", "setting": "[3]; read-out: Ki GSK3", "result": 16, "unit": "nM"}, {"measurement": "IC50", "setting": "[3]; read-out: Kinase inhibition IC50 GSK3β", "result": 176, "unit": "nM"}, {"measurement": "activity at 1 µM", "setting": "[4]", "result": "78 ± 4", "unit": "%"}, {"measurement": "Activation of GS compared with 40 mM LiCl", "setting": "[5]; HEK293 cells, 5 μM", "result": "comparable to that induced by 40 mM LiCl"}, {"measurement": "Activity of glycogen synthase (fractional velocity)", "setting": "[5]; HEK293 cells, ratio of activity at 0.1 and 10 mM glucose-6-phosphate", "result": "increased the activity of glycogen synthase"}, {"measurement": "EC50", "setting": "[5]; Homo sapiens, HEK293, from dose-response curves, read-out: EC50 activation of glycogen synthase", "result": "1500 ± 600", "unit": "nM"}, {"measurement": "fold induction at 0.1 µM", "setting": "[5]; Homo sapiens, HEK293 cells, 0.1 μM", "result": 0.9}, {"measurement": "fold induction at 0.5 µM", "setting": "[5]; Homo sapiens, HEK293 cells, 0.5 μM", "result": 1.1}, {"measurement": "fold induction at 1 µM", "setting": "[5]; Homo sapiens, HEK293 cells, 1 μM", "result": 1.6}, {"measurement": "fold induction at 5 µM", "setting": "[5]; Homo sapiens, HEK293 cells, 5 μM (Table 4)", "result": 3.3}, {"measurement": "fold induction at 5 µM", "setting": "[5]; Homo sapiens, In HEK293 cells at [compound] = 5 μM (Table 2)", "result": 3.7}]}]}
